# Experiments:
# Type in all cases: cell-based
# PLOD3 = assay: Gene-expression analysis in normal human dermal fibroblasts: PLOD3; details: 24 hrs
# Procedure: PLOD3: The enzyme catalyzes the hydroxylation of lysyl residues in collagen-like peptides. The resultant hydroxylysyl groups are attachment sites for carbohydrates in collagen and thus are critical for the stability of intermolecular crosslinks.
# (§1) Normal human dermal fibroblasts at passage 7 from a donor were cultured in DMEM with L-glutamine 2 mM, Penicillin 50 U/ml-Streptomycin 50 ug/ml and 10% FCS in a 5% CO2 atmosphere at 37° C. After equilibration of cell in 1% FCS for 24 hrs the respective peptides H-(beta-Ala)-Pro-Dab-NH-benzyl [CAS 823202-99-9], respectively N-palmitoyl-Gly-His-Lys [147732-56-7]/N-palmitoyl-Gly-Gln-Pro-Arg [221227-C5-0] (2:1) diluted in growth medium to a concentration of 0.01% were added and the cells were incubated for an additional 24 hrs. At the end of incubation cells were washed in PBS and immediately frozen at −80° C. Total RNA was extracted using NucleoSpin RNA Plus kit (Macherey-Nagel) according to supplier's instructions. cDNA was synthesized by reverse transcription of total RNA using Transcriptor Reverse Transcriptase (Roche). PCR was performed on a LightCycler device (Roche Molecular Systems Inc.) according to manufacturer's instructions. Raw data were analyzed using Microsoft Excel.
# LOXL2 = assay: Gene-expression analysis in normal human dermal fibroblasts: LOXL2; details: peptide 0.01%, 24 hrs
# Procedure: LOXL2: This gene encodes a member of the lysyl oxidase gene family that catalyses the first step in the formation of crosslinks in collagens.
# as §1
# PCOLCE = assay: Gene-expression analysis in normal human dermal fibroblasts: PCOLCE; details: peptide 0.01%, 24 hrs
# Procedure: PCOLCE: This gene encodes a glycoprotein which binds and drives the enzymatic cleavage of type I procollagen upon secretion from the cell, to yield the mature triple helical, highly structured fibrils.
# as §1
# ADAMTS2 = assay: Gene-expression analysis in normal human dermal fibroblasts: ADAMTS2; details: peptide 0.01%, 24 hrs
# Procedure: ADAMTS2 is responsible for processing several types of procollagen proteins. Specifically, this enzyme clips a short chain of amino acids off one end of the procollagen. This clipping step is necessary for collagen molecules to function normally and assemble into fibrils outside cells.
# as §1
substance,measurement,setting,value
H-(beta-Ala)-Pro-Dab-NH-benzyl [H-(β-Ala)-Pro-Dab-NH-benzyl],PLOD3 gene expression,"PLOD3; normal human dermal fibroblasts, peptide 0.01%",299%
same,upregulation of genes involved in collagen fiber maturation (in words),"PLOD3; summary over PLOD3, LOXL2, PCOLCE, ADAMTS2, fibroblasts, 0.01%",significantly upregulates
same,LOXL2 gene expression,LOXL2,237%
same,PCOLCE gene expression,PCOLCE,137%
same,ADAMTS2 gene expression,ADAMTS2,151%

# From patent US10328011B2, “Use of proline containing dipeptides” (DSM IP ASSETS B.V., priority 2015, dated 2019)
